Experimental data published in patent publication US20070238700A1, “N-PHENYL-1,1,1-TRIFLUOROMETHANESULFONAMIDE HYDRAZONE DERIVATIVE COMPOUNDS AND THEIR USAGE IN CONTROLLING PARASITES” (priority 2006, published 2007).
Like-named read-outs stand apart in the source and are kept apart here.

Key:
Ctenocephalides felis = test system: Ctenocephalides felis
Experimental: b) Ctenocephalides felis Adulticide Assay: C. felis Single Dose Screen
Mortality of fleas was the primary endpoint in the assay. Fleas were considered dead if they didn't move or were on their sides and unable to walk or right themselves. […] The concentration chosen (1.26 μg/cm^2) was higher than that known to kill 90% of cat fleas (LC90) using the reference compound, permethrin.
The test species was the cat flea (Ctenocephalides felis). The strain used was obtained from external suppliers as pupae and held in the laboratory under testing conditions until the adults had emerged. Fifteen (15) fleas were used in a minimum of four replicates against a single concentration level (approximately 60 fleas). The insects were selected to be in the adult life stage, aged between 3 and 7 days post emergence.
The compounds to be tested were supplied as solids and were prepared in acetone as described below prior to testing. Samples were stored in a refrigerator (5±1° C.) unless otherwise specified.
During the mortality testing, the temperature was maintained at 25±1° C. Humidity was maintained at 75±5%. The base (area=159 mm^2) of a 100 mL glass Erlenmeyer (conical) flask provided the treatment surface. Flasks were pretreated with Coatasil™ glass treatment to maximise bio-availability of test compounds by preventing them from binding to glass the surface. The base of the 100 mL Erlenmeyer flask was treated with 0.5 mL of test sample in acetone and gently swirled. This volume was sufficient to cover the base of the flask. Flasks were left to dry for 24 hours before flea exposure.
Adult cat fleas were placed into a sorting chamber, which allowed fleas to jump into the Erlenmeyer flasks. Fifteen (15) adult cat fleas were collected in each flask. The top of the flasks were then covered in Parafilm™ and small holes were made to allow gas exchange. A 0.5 mL volume of acetone as a solvent control was applied to the base of an Erlenmeyer flask and the testing proceeded in the same manner described above. Cat fleas in the treatment containers were held under testing conditions for 8, 24 and/or 48 hours. Mortality was recorded at 8, 24, 8 and 24, or 24 and 48 hours Pooled 8, 24, 8 and 24, and 24 and 48 hour mortality data were converted to percentages and are summarized by Table 21, below.

Rhipicephalus sanguineus = test: Rapid screening protocol for topical application on brown dog ticks (% mortality)
Experimental: d) Rapid Screening Protocol for Topical Application on Brown Dog Ticks (Rhipicephalus sanguineus)
The aim of the test was to determine the presence of significant acaricidal activity in sample compounds or formulations when applied topically on brown dog ticks. A tick was defined as dead if it gave no apparent response when touched lightly and observed for 1 minute. To assess the experimental compound for acaricidal activity, a single dose level was chosen based on known results from previous experiments with a commercially available active reference compound. Both permethrin and fipronil were employed as reference compounds. The insect species tested was the Brown Dog Tick (Rhipicephalus sanguineus). Mixed sex adult ticks were used for tests. The strain used was cultured by von Berky Veterinary Services, Woody Point, QLD, AU and supplied as unfed adult ticks (mixed sex). Ticks were maintained in controlled conditions (temp. 18°±2° C., humidity 75±5% RH).
Test compounds (formulations or active ingredients) were stored in a refrigerator (5±1° C.) unless otherwise specified. Temperature was maintained at 25±1° C. and the humidity was ambient. The screening dose chosen was higher than that known to kill 90% of insects (LD90) using the reference compound. In the case of topical application of active compounds on adult ticks, the reference compound was fipronil and the dose chosen was 10 μg of active per tick (=10 μg of fipronil/1 μl of acetone). Ticks were each treated on the abdomen with 1 μL of a single dose level of test sample in acetone; ten ticks were treated with solvent only (acetone) in each test. Tests were replicated 4 times (total of 40 ticks treated). Ticks were held in recovery containers maintained under appropriate rearing conditions for 24 hours. Mortality resulting from the treatments was recorded at 24 hours. Pooled 24 hour mortality data were converted to percentages.

| SMILES | C. felis Mortality (%) 8 h (Ctenocephalides felis; 8 h, data from laboratory 1) [%] | C. felis Mortality (%) 24 h (Ctenocephalides felis; 24 h, data from laboratory 1) [%] | further results |
| --- | --- | --- | --- |
| CC(=NN(Cc1ccccc1)c1ccccc1)c1cc(Cl)ccc1NS(=O)(=O)C(F)(F)F [Compound 22] | – | – | C. felis Mortality (%) 8 h (Ctenocephalides felis): 98%; C. felis Mortality (%) 24 h (Ctenocephalides felis): 100%; R. sanguineus Mortality (%) 24 h (Rhipicephalus sanguineus; data from laboratory 1): 33^A % |
| CCC(=NN(Cc1ccccc1)c1ccccc1)c1cc(Cl)ccc1NS(=O)(=O)C(F)(F)F [Compound 24] | – | – | C. felis Mortality (%) 8 h (Ctenocephalides felis): 100%; C. felis Mortality (%) 24 h (Ctenocephalides felis): 100%; R. sanguineus Mortality (%) 24 h (Rhipicephalus sanguineus; data from laboratory 1): 28^A % |
| CC(=NN(c1ccccc1)C(C)C)c1cc(Cl)ccc1NS(=O)(=O)C(F)(F)F [Compound 28] | – | – | C. felis Mortality (%) 24 h (Ctenocephalides felis): 100%; C. felis Mortality (%) 48 h (Ctenocephalides felis): 100%; R. sanguineus Mortality (%) 24 h (Rhipicephalus sanguineus; data from laboratory 2): 68% |
| CC(=NN(c1ccc(Cl)cc1)C(C)C)c1cc(Cl)ccc1NS(=O)(=O)C(F)(F)F [Compound 33] | – | – | C. felis Mortality (%) 24 h (Ctenocephalides felis): 86%; C. felis Mortality (%) 48 h (Ctenocephalides felis): 100%; R. sanguineus Mortality (%) 24 h (Rhipicephalus sanguineus; data from laboratory 2): 88% |
| CCN(N=C(C)c1cc(Cl)ccc1NS(=O)(=O)C(F)(F)F)c1ccccc1Cl [Compound 37] | – | – | C. felis Mortality (%) 24 h (Ctenocephalides felis): 89%; C. felis Mortality (%) 48 h (Ctenocephalides felis): 100%; R. sanguineus Mortality (%) 24 h (Rhipicephalus sanguineus; data from laboratory 2): 83% |
| CCN(N=C(C)c1cc(Cl)ccc1N(C)S(=O)(=O)C(F)(F)F)c1ccccc1F [Compound 44] | – | – | C. felis Mortality (%) 24 h (Ctenocephalides felis): 3%; C. felis Mortality (%) 48 h (Ctenocephalides felis): 22%; R. sanguineus Mortality (%) 24 h (Rhipicephalus sanguineus; data from laboratory 2): 3% |
| CC(=NN(c1ccc(C(F)(F)F)cc1)C(C)C)c1cc(Cl)ccc1NS(=O)(=O)C(F)(F)F [Compound 47] | – | – | C. felis Mortality (%) 8 h (Ctenocephalides felis): 14%; C. felis Mortality (%) 24 h (Ctenocephalides felis): 100%; R. sanguineus Mortality (%) 24 h (Rhipicephalus sanguineus; data from laboratory 2): 58% |
| CC(=NN(C)c1ccc(Cl)nn1)c1cc(Cl)ccc1NS(=O)(=O)C(F)(F)F [Compound 194] | 0 | 5 | – |
| CC(=NN(C)c1ccccn1)c1cc(Cl)ccc1NS(=O)(=O)C(F)(F)F [Compound 195] | 2 | 30 | – |
| CC(=NN(C)c1ccc(Cl)cn1)c1cc(Cl)ccc1NS(=O)(=O)C(F)(F)F [Compound 196] | 3 | 32 | – |
| CC(=NN(C)c1cccc(Cl)n1)c1cc(Cl)ccc1NS(=O)(=O)C(F)(F)F [Compound 197] | 7 | 23 | – |
| CC(=NN(C)c1ccc2ccccc2n1)c1cc(Cl)ccc1NS(=O)(=O)C(F)(F)F [Compound 198] | 2 | 25 | – |
| CC(=Nn1c(=O)[nH]nc(C)c1=O)c1cc(Cl)ccc1NS(=O)(=O)C(F)(F)F [Compound 199] | 3 | 3 | – |
| CCCN(N=C(C)c1cc(Cl)ccc1NS(=O)(=O)C(F)(F)F)c1cccc(Cl)c1Cl [Compound 200] | 2 | 58 | – |
| CC(=Nn1c(C)nc2ccccc2c1=O)c1cc(Cl)ccc1NS(=O)(=O)C(F)(F)F [Compound 201] | 2 | 10 | – |
| CC(=NN(CCC#N)CCC#N)c1cc(Cl)ccc1NS(=O)(=O)C(F)(F)F [Compound 202] | 3 | 24 | – |
| CC(=NN(C)c1ccccc1C(F)(F)F)c1cc(Cl)ccc1NS(=O)(=O)C(F)(F)F [Compound 204] | 6 | 11 | – |
| CN(N=C1CCc2cccc(NS(=O)(=O)C(F)(F)F)c21)c1ccccc1 [Compound 205] | 12 | 13 | – |
| CC(=NN(C)c1cnccn1)c1cc(Cl)ccc1NS(=O)(=O)C(F)(F)F [Compound 206] | – | – | C. felis Mortality (%) 8 h (Ctenocephalides felis): 7%; C. felis Mortality (%) 24 h (Ctenocephalides felis): 12% |

| SMILES | C. felis Mortality (%) 8 h (Ctenocephalides felis; 8 h, data from laboratory 1) [%] | C. felis Mortality (%) 24 h (Ctenocephalides felis; 24 h, data from laboratory 1) [%] | further results |
| --- | --- | --- | --- |
| C/C(=N\NC(=O)Nc1ccc(OC(F)(F)F)cc1)c1cc(Cl)ccc1NS(=O)(=O)C(F)(F)F [Compound 207] | 5 | 8 | – |
| C/C(=N\NC(=O)Nc1ccc(C(F)(F)F)cc1)c1cc(Cl)ccc1NS(=O)(=O)C(F)(F)F [Compound 208] | 8 | 18 | – |
| C/C(=N\N(C)c1nccc2ccccc12)c1cc(Cl)ccc1NS(=O)(=O)C(F)(F)F [Compound 209] | 7 | 18 | – |
| C/C(=N\N(C)c1cnc2ccccc2n1)c1cc(Cl)ccc1NS(=O)(=O)C(F)(F)F [Compound 210] | 4 | 17 | – |
| CCN(N=C(C)c1cc(Cl)ccc1NS(=O)(=O)C(F)(F)F)C1CCCC1 [Compound 212] | – | – | C. felis Mortality (%) 8 h (Ctenocephalides felis): 7%; C. felis Mortality (%) 24 h (Ctenocephalides felis): 59% |
| CCC(=NN(CC)C1CCCC1)c1cc(Cl)ccc1NS(=O)(=O)C(F)(F)F [Compound 214] | 7 | 61 | – |
| CCN(N=C(C)c1cc(Cl)ccc1NS(=O)(=O)C(F)(F)F)C1CCCCC1 [Compound 216] | 0 | 52 | – |
| CC/C(=N\N(C)C1CCCCC1)c1cc(Cl)ccc1NS(=O)(=O)C(F)(F)F [Compound 217] | 3 | 48 | – |
| CCC(=NN(CC)C1CCCCC1)c1cc(Cl)ccc1NS(=O)(=O)C(F)(F)F [Compound 218] | 5 | 62 | – |
| CN(N=C1CCCc2cccc(NS(=O)(=O)C(F)(F)F)c21)c1ccccc1 [Compound 219, N-[8-(N′-methyl-N′-phenyl)hydrazono-5,6,7,8-tetrahydro-naphthalen-1-yl]-trifluoromethanesulfonamide] | – | – | C. felis Mortality (%) 8 h (Ctenocephalides felis): 0%; C. felis Mortality (%) 24 h (Ctenocephalides felis): 2% |
| CCC(=O)N(CCC#N)/N=C(\C)c1cc(Cl)ccc1NS(=O)(=O)C(F)(F)F [Compound 225] | 2 | 73 | – |
| O=S(=O)(Nc1ccc(Cl)cc1C1=NN(c2ccccc2)CC1)C(F)(F)F [Compound 226] | 0 | 28 | – |
| O=S(=O)(Nc1ccc(Cl)cc1C1=NN(c2ccccc2F)CC1)C(F)(F)F [Compound 228] | 14 | 59 | – |
| O=S(=O)(Nc1ccc(Cl)cc1C1=NN(c2ccccc2)CC1)C(F)(F)F [Compound 229, N-[4-Chloro-2-(1-phenyl-4,5-dihydro-1H-pyrazol-3-yl)-phenyl]-trifluoromethanesulfonamide] | – | – | C. felis Mortality (%) 8 h (Ctenocephalides felis; 8 h): 18%; C. felis Mortality (%) 24 h (Ctenocephalides felis; 24 h): 37% |
| O=S(=O)(Nc1ccc(Cl)cc1-c1ccn(-c2ccccc2)n1)C(F)(F)F [Compound 230, N-[4-Chloro-2-[1-phenyl-1H-pyrazol-3-yl]-phenyl]-trifluoromethanesulfonamide] | – | – | C. felis Mortality (%) 8 h (Ctenocephalides felis; 8 h): 10%; C. felis Mortality (%) 24 h (Ctenocephalides felis; 24 h): 43% |
| O=S(=O)(Nc1ccc(Cl)cc1C1=NN(c2cccc(Cl)c2)CC1)C(F)(F)F [Compound 231] | 12 | 42 | – |
| O=S(=O)(Nc1ccc(Cl)cc1C1=NN(c2cccc(F)c2)CC1)C(F)(F)F [Compound 232] | 7 | 27 | – |
| O=S(=O)(Nc1ccc(Cl)cc1C1=NN(c2ccc(F)cc2)CC1)C(F)(F)F [Compound 233] | 9 | 28 | – |
| O=S(=O)(Nc1ccc(Cl)cc1C1=NN(c2ccc(Cl)cc2)CC1)C(F)(F)F [Compound 234] | 14 | 41 | – |
